Entries after “also recorded” stand apart in the source; their conditions may differ.
Legend:
[1] = system: sulfation (PAPS formation); settings: chlorate usually 10-30 mM; cited from earlier work
[2] = system: T3M4 and PT45 pancreatic tumour cells; assay: In vitro co-culture killing assay with CD44v6 CAR-T cells; format: cell-based
Experimental: (§1) CEA or CD44v6 CAR-T cells from healthy donors were co-cultured at 1:5, 1:10, 1:25 E:T ratios with target cells in the absence of IL-7 and IL-15. T cells transduced with an irrelevant CAR (CD19 CAR T) were used as control. After 24 h or 96 h, co-cultures were analysed by FACS using Flow-Count Fluorospheres (BeckmanCoulter) and target cell killing, expressed as Elimination Index, was calculated as follows: 1−(number of residual target cells with experimental CAR-T cells/number of residual target with irrelevant CAR-T cells). In co-culture assays combining CAR-T cells with 2DG, target cells were exposed to 4 mM 2DG for 48 h before being washed, co-cultured with experimental or irrelevant CAR-T cells and analysed as above. In these experiments, the Elimination Index of 2DG alone was calculated as follows: 1−(number of target cells cultivated in medium supplemented with 2DG/number of target cells cultivated in medium alone). Co-culture of Jurkat CAR-TPR and tumour cells was performed at 1:1 E:T ratio. As control, Jurkat CAR-TPR cells were treated with either 50 ng/mL of phorbol myristate acetate (PMA) or 1 g/mL of Ionomycin or a combination of the two. Upregulation of fluorescence was assessed after 24 hours

[3] = system: healthy peripheral blood mononuclear cells (PBMCs); assay: Safety study on buffy coat cells (PHA-L staining, 7aad/AnnexinV); format: cell-based; settings: 4 mM 2DG, 18 hours
Experimental: (§2) For dose assessment, tumour cells were exposed to 2, 4, 8, 16 or 64 mM 2DG (D8375, Sigma-Aldrich) and, after 48 h, absolute cell numbers and percentages of necrotic and proliferating cells were determined by FACS using Flow-Count Fluorospheres (BeckmanCoulter), 7-AAD and CFSE, respectively. For pharmacokinetic studies, tumour cells were treated with 4 mM 2DG and surface N-glycosylation was assessed by PHA-L staining at different time points from treatment or from wash-out to assess the kinetic of de-glycosylation and glycosylation, respectively. For safety studies, buffy coat cells were treated with 4 mM 2DG for 18 hours in the presence of IL-2 (100 IU/mL; Chiron), IL-21 (10 ng/ml; Peprotech) and IL-15 (5 ng/mL; Peprotech) before assessment of the glyco-phenotype by PHA-L staining and of cell viability by 7aad/AnnexinV staining.

[4] = system: T3M4 pancreatic tumour cells; assay: Surface expression of beta-1 integrin and CD44v6 by FACS; format: cell-based; settings: 4 mM 2DG, 48 hours
Experimental: (§3) The inventors used mAbs specific for human CD44v6 (e-Bioscience), CD3, CD45, NGFR, LAG3 (BD Bioscience), HLA-DR, PD1, TIM3, (Biolegend), CD57 (Miltenyi Biotec). To determine cell vitality, 7-Aminoactinomicin D (7-AAD), AnnexinV or DAPI reagents were used. For LV transduced tumour cells, GFP expression was analysed by direct fluorescence. Samples were run through a fluorescence-activated cell sorting (FACS) Canto flow cytometer (BD Biosciences) and data were analysed with the FlowJo software (Tree Star, Inc.). For branched N-glycans expression analysis, cells were incubated with biotinylated Phaseolus vulgaris Leukoagglutinin (PHA-L; Caderlane) for 1 hour according to manufacturer's instructions, washed and incubated with PE-conjugated streptavidin and analysed by flow cytometry.

[5] = 2DG alone or combined with chemotherapy and radiotherapy; cited from earlier work
[6] = system: T3M4 pancreatic tumour cells; assay: PHA-L staining of surface N-glycosylation after 2DG treatment; format: cell-based
Experimental: as §2, §3

[7] = system: T3M4 pancreatic adenocarcinoma xenograft; assay: In vivo efficacy, pancreatic adenocarcinoma xenograft mouse model; design: species or system NSG mice
Experimental: All experiments were approved by the Institutional Animal Care and Use Committee (IACUC) of San Raffaele University Hospital and Scientific Institute and by the Italian Governmental Health Institute (Rome, Italy). NSG mice (NOD.Cg-Prkdcscid Il2rgtm1Wj1) were obtained from the Jackson Laboratories and kept in a specific-pathogen-free (SPF) facility within individually ventilated cages. […] At day […] and 7 from tumour engraftment, when the tumour burden was high, mice were injected intraperitoneally (i.p.) with 500 mg/kg 2DG. At day 7 mice were infused intravenously (i.v.) with 5×10^5 of either CD44v6 or CD19 CAR T cells as control. In another set of experiments, mice were treated with 500 mg/kg 2DG at day 2 and 3 and received 10×10^5 of either CD44v6 or CD19 CAR T cells at day 3, when the tumour burden was low. Tumour growth was monitored by bioluminescence assay using the QUANTI-Luc detection reagent (InvivoGen) and expressed as relative light units (RLUs), according to the manufacturer instructions. Mice were sacrificed when RLUs were >10^6.

[8] = system: 5637, H1975 and PC9 cells; assay: In vitro co-culture killing assay, other tumour types; format: cell-based; settings: 4 mM 2DG 48 hours before co-culture
Experimental: as §1

[9] = system: T3M4 pancreatic tumour cells; assay: Lactate production assay (glycolysis); format: cell-based; settings: low doses of 2DG, 48 h
Experimental: Lactate production was assessed after 48 hours of 2DG treatment at the doses of 2, 4, 8, 16 or 64 mM 2DG using the Lactate-Glo assay (Promega) according to the manufacturer's instructions.

[10] = system: human primary keratinocytes; assay: Primary keratinocytes: western blot and co-culture with CD44v6 CAR-T cells; format: cell-based
Experimental: as §1, with “As control, Jurkat CAR-TPR cells were treated with either 50 ng/mL of phorbol myristate acetate (PMA) or 1 g/mL of Ionomycin or a combination of the two.” left out
Tumour cells or healthy primary keratinocytes were treated with either medium alone or supplemented with 4 mM 2DG for 48 h, lysed and subjected to SDS polyacrylamide gel electrophoresys. De-glycosylation was assessed as molecular weight shift. […]

[11] = system: T3M4 pancreatic tumour cells; assay: Tumour cell survival (7-AAD) and proliferation (CFSE) after 2DG; format: cell-based; settings: low doses of 2DG (4 mM, 48 hours)
Experimental: as §2

[12] = system: PT45, BxPC3 and T3M4 pancreatic tumour cells; assay: In vitro co-culture killing assay with CEA CAR-T cells; format: cell-based
Experimental: as §1

[13] = system: T3M4 pancreatic tumour cells; assay: Western blot / biotin-enrichment assay of protein de-glycosylation; format: cell-based
Experimental: […] De-glycosylation was assessed as molecular weight shift. For selective cell membrane protein analysis, biotinilation assay was performed according to manufacturer instructions (Thermo Scientific). Treatment of cell lysates with PNGase F (NEB, P0704) was performed as recommended by the manufacturer's instructions.

[14] = T3M4, tunicamycin 100 ng/ml, 48 h

[O-][Cl+2]([O-])O [chlorate]
inhibition of sulfation [1]: > 90%

tunicamycin
CD44v6 CAR-T cell activation (CD69) after tunicamycin treatment of tumour cells [2, 14]: confirmed | elimination of tumour cells by CD44v6 CAR-T cells after tunicamycin treatment [2, 14]: confirmed

O=CC[C@@H](O)[C@H](O)[C@H](O)CO [2DG, 2-Deoxy-D-glucose]
PBMCs glycosylation (PHA-L staining) [3]: failed to interfere with PBMCs glycosylation | viability of CD3+ T cells, CD19+ B cells, CD14+ monocytes and CD15+ granulocytes [3]: did not impact on the viability | surface expression levels of beta-1 integrin and CD44v6 [4]: maintained | safety and tolerability in patients [5]: safe and well tolerated; also recorded: good tolerability | duration of de-glycosylation after washing out 2DG ([6]; 4 mM 2DG up to 48 hours, then wash-out): 24 h | inhibition of N-glycosylation (binding to PHA-L) ([6]; 4 mM 2DG, 48 hours): reduced binding to PHA-L | time at which de-glycosylation is detectable ([6]; 4 mM 2DG, PHA-L staining): ≤ 5 h | frequency of tumour-infiltrating CD44v6 CAR-T cells expressing exhaustion and senescence markers ([7]; at sacrifice, mice that received 2DG vs not): significantly lower frequency of cells expressing exhaustion and senescence markers | antitumor effect of 2DG alone ([7]; high tumor burden): unable to mediate any antitumor effect alone | less tumor with 2DG in mice receiving CAR-T cells ([7]; high tumor burden, at 7d, p<0,05): 5 fold | antitumor benefit of 2DG in mice receiving CD44v6 CAR-T cells ([7]; high tumour burden (HTB) setting, 500 mg/kg 2DG i.p., low CAR-T cell dose): significantly benefited from 2DG administration | elimination of highly glycosylated tumours by CD44v6 CAR-T cells after 2DG [8]: drastically increase the elimination | inhibition of glycolysis (lactate production) [9]: unable to inhibit glycolysis | increase of keratinocyte elimination by CD44v6 CAR-T cells ([10]; 2DG 48 hours before co-culture): failed | keratinocyte glycosylation ([10]; 2DG 48 hours, same dose as for tumour cells): failed to inhibit keratinocyte glycosylation | nature of the combined effect of 2DG and CD44v6 CAR-T cells ([2]; PT45 and T3M4): synergic | individual antitumor activity of 2DG alone ([2]; PT45 and T3M4, 4 mM 2DG 48 h): lacking | elimination of tumour cells by CD44v6 CAR-T cells after 2DG pre-treatment ([2]; PT45 and T3M4, 4 mM 2DG 48 h before co-culture): significantly increasing their elimination | tumour cell proliferation (CFSE dilution) [11]: no impact | tumour cell viability (7AADpos cells) [11]: no impact on tumour cell viability | cytokine release (IFNγ) by CEA CAR-T cells with 2DG-treated tumour cells ([12]; 24 hours after stimulation): increased | recognition of CEAneg tumour cells by CEA CAR-T cells after 2DG pre-treatment ([12]; CEAneg PT45, 4 mM 2DG 48 hours): did not increase recognition | elimination of CEApos tumour cells by CEA CAR-T cells after 2DG pre-treatment ([12]; CEApos BxPC3 and T3M4, 4 mM 2DG 48 hours): significantly improved the elimination | CEA CAR-T cell activation (CD69, Jurkat TPR) with 2DG-treated tumour cells ([12]; T3M4, 4 mM 2DG): increased CAR-T cell activation | inhibition of N-glycosylation (western blot, beta-1 integrin) ([13]; 2DG 4 mM or 16 mM, 48 hours, total cell lysates): molecular-weight shift of beta-1 integrin | de-glycosylated forms of beta-1 integrin and CD44v6 among surface proteins ([13]; biotin-enrichment western blot): clearly detected among surface proteins

— US20250114386A1, “COMBINATION OF A GLYCOSYLATION INHIBITOR WITH ONE CAR CELL THERAPY FOR TREATING CANCER” (OSPEDALE SAN RAFFAELE S.R.L., priority 2018, published 2025)
